# What was measured:
# HCT116 cells = assay: Inhibitory activity of BrdU uptake in HCT116 cells (Cell Proliferation ELISA, chemiluminescence); type: cell-based; settings: HCT-116; HCT116 cells derived from human colon cancer, cultured with compound for 12 hours, BrdU pulse 1 hour
# Protocol: Growing cells perform DNA duplication in the S phase of the cell cycle, and divide into daughter cells in the M phase via the G2 phase. As an index for the cell growth, there is a method to determine the amount of BrdU taken into newly synthesized DNAs in the DNA duplicating cells ((J. Immunol Methods, vol. 82, p. 169-179 (1985); J. Immunolog. Methods, vol. 106, p. 95-100 (1988); Cytometry, vol. 14, p. 640-648 (1993)). Inhibitory activities of BrdU uptake was determined in order to investigate the effect of the compounds of the present invention against cancer cells.
# HCT116 cells derived from human colon cancer were cultured in Dulbecco's modified Eagle's medium containing 10% fetal bovine serum at 37° C. in the presence of 5% carbon dioxide under an atmosphere of saturated steam.
# Cell culture medium (100 μl each) containing 2.5×10^3 of HCT116 cells was dispensed into each well of a 96-well cell culture dish, and then the cells were pre-cultured overnight. On the next day, a series of diluted solutions was prepared with DMSO from a DMSO solution containing the compounds of the present invention. Then, a series of diluted solutions, or DMSO only as a control without addition of the compound, was added in an amount of 1% to the cell culture medium. Finally, 100 μl of culture medium containing the above diluted solution containing the compounds or DMSO only were each added to the cells which had been pre-cultured in the 96-well dish, and then the cells were cultured for 12 hours.
# Quantitative determination of BrdU uptake was performed using the Cell Proliferation ELISA, BrdU (chemiluminescence)(Roche Diagnostics). Each 20 μL of 10× concentrated BrdU labeling reagent was added to the cells which had been cultured together with the compound for 12 hours, which were subjected to pulse labeling at 37° C. for 1 hour, and then the culture solution was removed. Then, after addition of a FixDenat solution to the cells, the cells were incubated at room temperature for 30 minutes for fixation of cells and denaturation of DNA. After removal of the FixDenat solution, anti-BrdU antibody labeled with peroxidase was added to the cells, and then the cells were incubated at room temperature for 90 minutes. The cells were washed four times with a washing solution, and a substrate was added thereto. The cells were incubated at room temperature for 10 minutes and chemical luminescence was determined with a luminometer.
# As typical compounds of the present invention, the compounds [11], [12], [39], [51], [71], [83], [85], [134] and [141] were chosen, and IC50 values of these compounds on BrdU uptake were determined.
# cyclin D2-Cdk4 = molecular target: T1, cyclin D2-Cdk4 (Homo sapiens, UniProt P11802); assay: Cyclin D2-Cdk4 inhibitory activity (33P-ATP phosphorylation of RB peptide substrate); type: biochemical; settings: 50 μM ATP, 100 μM substrate peptide, 30° C., 45 minutes; read-out: IC50 against cyclin D2-Cdk4 activity
# T1 construct: made in house; host or cells: Sf9 insect cells (baculovirus co-infection)
# T1 sequence (P11802 whole entry): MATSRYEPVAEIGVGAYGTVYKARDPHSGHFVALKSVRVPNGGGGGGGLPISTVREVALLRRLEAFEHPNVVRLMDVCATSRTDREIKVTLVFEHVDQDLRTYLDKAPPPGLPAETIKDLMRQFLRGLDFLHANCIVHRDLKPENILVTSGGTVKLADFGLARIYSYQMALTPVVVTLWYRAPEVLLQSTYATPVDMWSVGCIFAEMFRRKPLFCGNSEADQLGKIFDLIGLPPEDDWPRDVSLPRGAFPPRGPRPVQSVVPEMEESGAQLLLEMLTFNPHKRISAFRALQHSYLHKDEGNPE
# T1 sequence (P30279 whole entry partner): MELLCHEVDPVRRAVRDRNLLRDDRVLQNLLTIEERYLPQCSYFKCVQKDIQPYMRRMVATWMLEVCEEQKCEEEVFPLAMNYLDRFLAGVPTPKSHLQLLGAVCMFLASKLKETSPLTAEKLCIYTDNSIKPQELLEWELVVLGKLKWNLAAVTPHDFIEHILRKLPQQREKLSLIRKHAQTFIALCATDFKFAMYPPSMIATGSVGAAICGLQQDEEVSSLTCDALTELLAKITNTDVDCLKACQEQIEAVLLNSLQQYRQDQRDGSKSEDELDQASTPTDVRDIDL
# Excerpt: cDNAs of Cdk4 and its activating factor cyclin D2 were each introduced into a baculovirus expression vector to obtain a recombinant baculovirus; it was then co-infected to an insect cell Sf9 to highly express active cyclin D2/Cdk4 complexes. The cells were recovered, solubilized and the enzymes were purified by HPLC column chromatography (The Embo Journal, vol. 15, 7060-7069 (1996)).
# In the determination of cyclin D2-Cdk4 activity, a synthetic peptide […]corresponding to the amino acid number 775-787 of RB protein was used as a substrate [The EMBO Journal, vol. 15, 7060-7069 (1996)].
# The reaction was carried out according to a method partially modifying Kitagawa et al. (Oncogene, vol. 7, 1067-1074 (1992)). Purified cyclin D2-Cdk4, 100 μM substrate peptide, 50 μM non-labeled adenosine triphosphate (ATP) and 1 μCi [γ-33P]-labeled ATP (2000-4000 Ci/mmole) were added to a reaction buffer (referred to as R buffer) consisting of 20 mM Tris-HCl buffer (pH 7.4), 10 mM magnesium chloride, 4.5 mM 2-mercaptoethanol and 1 mM ethylene glycol bis(β-aminoethyl ether)-N,N,N′,N′-tetraacetic acid (EGTA) to make a total volume of 21.1 μl. The mixture was incubated at 30° C. for 45 minutes. After that, 350 mM phosphate buffer (10 μl) was added to the reaction solution to stop the reaction. The peptide substrate was adsorbed on a P81 paper filter in a 96-well plate, and the plate was washed several times with 75 mM phosphate buffer, and then its radioactivity was measured by a liquid scintillation counter. The [γ-33P]-labeled ATP was purchased from Daiichi Pure Chemicals.
# Addition of test compounds to the reaction system was carried out in such a manner that the compounds were dissolved in dimethyl sulfoxide to prepare a series of diluted solutions, and then each aliquot (1.1 μl) was added to the reaction system. A control group was prepared by addition of only dimethyl sulfoxide (1.1 μl) to the reaction system.
# The compounds in the following Working Examples were chosen as typical compounds of the present invention, and IC50 values against cyclin D2-Cdk4 activity of those compounds were determined.
SMILES,IC50 (HCT116 cells),IC50 (cyclin D2-Cdk4)
CO[C@H]1CCCN(Cc2cc3c4nc(c(=O)[nH]c4c2)-c2cccc4c(=O)n([nH]c24)CCN2CC[C@@H](C2)O3)C1 [[12]],9.7 nM,11 nM
C[C@@H]1CC2CN1CCn1[nH]c3c(cccc3c1=O)-c1nc3c(cccc3[nH]c1=O)O2 (some centres unmarked) [[134]],7.8 nM,–
CN1CCOc2cccc3[nH]c(=O)c(nc23)-c2cccc3c(=O)n([nH]c23)CC1 [[71]],75 nM,13 nM
C[C@@H]1CC2CN1CCn1[nH]c3c(cccc3c1=O)-c1nc3c(cc(C4CCCCO4)cc3[nH]c1=O)O2 (some centres unmarked) [[139]],–,3 nM
Cc1ccnc(-c2cc3c4nc(c(=O)[nH]c4c2)-c2cccc4c(=O)n([nH]c24)CCN2C[C@H](C[C@H]2C)O3)n1 [[87]],–,2.6 nM
C[C@@H]1C[C@H]2CN1CCn1[nH]c3c(cccc3c1=O)-c1nc3c(c(CNC(C)(C)C)ccc3[nH]c1=O)O2 [[145]],–,2.7 nM
O=c1[nH]c2cc(CN3CCOCC3)cc3c2nc1-c1cccc2c(=O)n(sc12)CCN1CC[C@@H](C1)O3 [[32]],–,9 nM
O=c1[nH]c2cc(CN3CCCCC3)cc3c2nc1-c1cccc2c(=O)n(sc12)CC[C@H]1CC[C@@H](C1)O3 [[25]],–,8.2 nM
COCc1cc2c3nc(c(=O)[nH]c3c1)-c1cccc3c(=O)n(sc13)CCN1CC[C@@H](C1)O2 [[45]],–,14 nM
Cc1cnc(-c2cc3c4nc(c(=O)[nH]c4c2)-c2cccc4c(=O)n([nH]c24)CCN2CC(C[C@H]2C)O3)nc1 (some centres unmarked) [[85]],20 nM,–
COC[C@H]1CCCCN1Cc1cc2c3nc(c(=O)[nH]c3c1)-c1cccc3c(=O)n(sc13)C[C@@H]1CC[C@H](CO2)O1 [[28]],–,16 nM
COc1ccc(-c2cc3c4nc(c(=O)[nH]c4c2)-c2cccc4c(=O)n([nH]c24)CCN2C[C@H](C[C@H]2C)O3)cc1OC [[104]],–,1.6 nM
C[C@@H]1CC2CN1CCn1[nH]c3c(cccc3c1=O)-c1nc3c(cc(N4CC5CCC(CC5)C4)cc3[nH]c1=O)O2 (some centres unmarked) [[124]],–,8.2 nM
CC1CCCN(Cc2cc3c4nc(c(=O)[nH]c4c2)-c2cccc4c(=O)n([nH]c24)CCCCCO3)C1 (racemic) [[55]],–,7.9 nM
C[C@@H]1C[C@H]2CN1CCn1[nH]c3c(cccc3c1=O)-c1nc3c(cc(N4CCN(c5ccccc5F)CC4)cc3[nH]c1=O)O2 [[128]],–,3.5 nM
C[C@@H]1C[C@H]2CN1CCn1[nH]c3c(cccc3c1=O)-c1nc3c(cc(-n4ncc5ccccc54)cc3[nH]c1=O)O2 [[99]],–,5.2 nM
CC1CCCCN1Cc1cc2c3nc(c(=O)[nH]c3c1)-c1cccc3c(=O)n([nH]c13)CCCCCO2 (racemic) [[54]],–,8.5 nM
O=c1[nH]c2cc(CN3CCOCC3)cc3c2nc1-c1cccc2c(=O)n(sc12)CCN1CCC(CC1)O3 [[39]],9.4 nM,6.9 nM

# More lines, now with the values ahead:
IC50 (HCT116 cells),IC50 (cyclin D2-Cdk4),SMILES
30 nM,2 nM,C[C@@H]1CC2CN1CCn1[nH]c3c(cccc3c1=O)-c1nc3c(cc(-c4ncccn4)cc3[nH]c1=O)O2 (some centres unmarked) [[83]]
–,9.2 nM,CCOC(=O)C1CCCN(Cc2cc3c4nc(c(=O)[nH]c4c2)-c2cccc4c(=O)n([nH]c24)CCCCCO3)C1 (racemic) [[56]]
–,9.4 nM,CC1CCN(c2cc3c4nc(c(=O)[nH]c4c2)-c2cccc4c(=O)n([nH]c24)CCN2C[C@H](C[C@H]2C)O3)CC1 [[126]]
–,2.7 nM,C[C@@H]1C[C@H]2CN1CCn1[nH]c3c(cccc3c1=O)-c1nc3c(cc(-c4ncc5c(n4)CCCC5)cc3[nH]c1=O)O2 [[86]]
–,11 nM,C[C@@H]1C[C@H]2CN1CCn1[nH]c3c(cccc3c1=O)-c1nc3c(cc(N4CCCCCC4)cc3[nH]c1=O)O2 [[127]]
–,9.6 nM,COC[C@@H]1CCCN1c1cc2c3nc(c(=O)[nH]c3c1)-c1cccc3c(=O)n([nH]c13)CCN1CC(C[C@H]1C)O2 (some centres unmarked) [[123]]
–,2.8 nM,C[C@@H]1C[C@H]2CN1CCn1[nH]c3c(cccc3c1=O)-c1nc3c(cc(-c4nccs4)cc3[nH]c1=O)O2 [[92]]
–,2.5 nM,C[C@@H]1C[C@H]2CN1CCn1[nH]c3c(cccc3c1=O)-c1nc3c(cc(N4CCCC4)cc3[nH]c1=O)O2 [[122]]
–,3 nM,C[C@@H]1CC2CN1CCn1[nH]c3c(cccc3c1=O)-c1nc3c(cc(C4CCCCO4)cc3[nH]c1=O)O2 (some centres unmarked) [[140]]
–,2.7 nM,Cc1nc(-c2cc3c4nc(c(=O)[nH]c4c2)-c2cccc4c(=O)n([nH]c24)CCN2C[C@H](C[C@H]2C)O3)no1 [[89]]
–,3.2 nM,C[C@@H]1C[C@H]2CN1CCn1[nH]c3c(cccc3c1=O)-c1nc3c(cc(CN4CCOCC4)cc3[nH]c1=O)O2 [[136]]
–,12 nM,CO[C@H]1CCCN(Cc2cc3c4nc(c(=O)[nH]c4c2)-c2cccc4c(=O)n(sc24)CCN2CC[C@@H](C2)O3)C1 [[35]]
–,1.7 nM,O=c1[nH]c2ccc(CCN3CCCCC3)c3c2nc1-c1cccc2c(=O)n(sc12)CCCCCO3 [[80]]
–,3.2 nM,C[C@@H]1C[C@H]2CN1CCn1[nH]c3c(cccc3c1=O)-c1nc3c(cc(-c4cncnc4)cc3[nH]c1=O)O2 [[91]]
–,3.4 nM,COCc1cc2c3nc(c(=O)[nH]c3c1)-c1cccc3c(=O)n([nH]c13)CCN1C[C@H](C[C@H]1C)O2 [[137]]
–,1.4 nM,C[C@@H]1C[C@H]2CN1CCn1[nH]c3c(cccc3c1=O)-c1nc3c(cc(-c4ccccc4)cc3[nH]c1=O)O2 [[102]]
–,14 nM,C[C@@H]1C[C@H]2CN1CCn1[nH]c3c(cccc3c1=O)-c1nc3c(cc(-c4ccc(OC(F)(F)F)cc4)cc3[nH]c1=O)O2 [[118]]
–,5.5 nM,C[C@@H]1C[C@H]2CN1CCn1[nH]c3c(cccc3c1=O)-c1nc3c(cc(-c4cc(F)cc(F)c4)cc3[nH]c1=O)O2 [[111]]
–,4.1 nM,C[C@@H]1C[C@H]2CN1CCn1[nH]c3c(cccc3c1=O)-c1nc3c(cc(-c4ccncc4)cc3[nH]c1=O)O2 [[95]]
–,17 nM,COC[C@@H]1CCCCN1Cc1cc2c3nc(c(=O)[nH]c3c1)-c1cccc3c(=O)n(sc13)CCN1CC[C@@H](C1)O2 [[37]]
–,6.7 nM,Cc1cnc(-c2cc3c4nc(c(=O)[nH]c4c2)-c2cccc4c(=O)n([nH]c24)CCN2C[C@H](C[C@H]2C)O3)nc1 [[85]]
–,8.2 nM,C[C@@H]1C[C@H]2CN1CCn1[nH]c3c(cccc3c1=O)-c1nc3c(c(CN4CCCCC4)ccc3[nH]c1=O)O2 [[131]]
–,12 nM,CO[C@@H]1CCCN(Cc2cc3c4nc(c(=O)[nH]c4c2)-c2cccc4c(=O)n(sc24)CCN2CC[C@@H](C2)O3)C1 [[34]]
–,6.9 nM,O=c1[nH]c2cc(CN3CCC(F)CC3)cc3c2nc1-c1cccc2c(=O)n([nH]c12)CCCCCO3 [[65]]
–,2.9 nM,C[C@@H]1C[C@H]2CN1CCn1[nH]c3c(cccc3c1=O)-c1nc3c(c(CNC4CC4)ccc3[nH]c1=O)O2 [[144]]
